Data taken from patent US10030006B2, “Coumarin based Hsp90 inhibitors with urea and ether substituents” (University of Kansas, priority 2013, dated 2018).
Read-outs that look alike come from different tables or passages of the source.

What was measured:
Format in all cases: cell-based
[1] = test system: SKBr3 (estrogen receptor negative, Her2 over-expressing breast cancer cells); test: Anti-proliferation assay (MTS/PMS, 72 h), SKBr3; conditions: Homo sapiens, SK-BR-3
[2] = test system: MCF-7 (estrogen receptor positive breast cancer cells); test: Anti-proliferation assay (MTS/PMS, 72 h), MCF-7; conditions: Homo sapiens, MCF7
[3] = test system: SKBr3 and MCF-7 cell lines; test: Anti-proliferative activity against both breast cancer cell lines (results in words); conditions: SKBr3 and MCF-7, Tables 1-5
Method: Cells were maintained in a 1:1 mixture of Advanced DMEM/F12 (Gibco) supplemented with non-essential amino acids, L-glutamine (2 mM), streptomycin (500 μg/mL), penicillin (100 units/mL), and 10% FBS. Cells were grown to confluence in a humidified atmosphere (37° C., 5% CO2), seeded (2000/well, 100 μL) in 96-well plates, and allowed to attach overnight. Compound at varying concentrations in DMSO (1% DMSO final concentration) was added, and cells were returned to the incubator for 72 h. At 72 h, the number of viable cells was determined using an MTS/PMS cell proliferation kit (Promega) per the manufacturer's instructions. Cells incubated in 1% DMSO were used at 100% proliferation, and values were adjusted accordingly. IC50 values were calculated from separate experiments performed in triplicate using GraphPad Prism.
The anti-proliferative activity of these compounds is evaluated against two breast cancer cell lines, SKBr3 (estrogen receptor negative, Her2 over-expressing breast cancer cells) and MCF-7 (estrogen receptor positive breast cancer cells).

[4] = Table 1, modified benzamide coumarin derivatives, read-out: SKBr3
[5] = Table 1, modified benzamide coumarin derivatives, read-out: MCF-7

| SMILES | IC50 [1, 4] [nM] | IC50 [2, 5] [nM] | IC50 ([1]; amide versus urea linkage, read-out: IC50 for SKBr3) [nM] | IC50 ([2]; amide versus urea linkage, read-out: IC50 for MCF-3) [nM] | anti-proliferative activity (in words) [3] |
| --- | --- | --- | --- | --- | --- |
| Cc1c(OC2CCN(C)CC2)ccc2cc(NC(=O)c3ccc(O)c(CCC(C)C)c3)c(=O)oc12 [Compound 19, 4-hydroxy-3-isopentyl-N-(8-methyl-7-(1-methylpiperidin-4-yloxy)-2-oxo-2H-chromen-3-yl)benzamide] | 600 ± 10 | 1250 ± 390 |  |  | no effect on inhibitory activity |
| Cc1c(OC2CCN(C)CC2)ccc2cc(NC(=O)c3ccc4c(c3)CCC(C)(C)O4)c(=O)oc12 [Compound 20, 2,2-dimethyl-N-(8-methyl-7-(1-methylpiperidin-4-yloxy)-2-oxo-2H-chromen-3-yl)chroman-6-carboxamide] | 3460 ± 20 | 5010 ± 10 |  |  | decreased anti-proliferative activities |
| C=CCc1cc(C(=O)Nc2cc3ccc(OC4CCN(C)CC4)c(C)c3oc2=O)ccc1OC(C)=O [Compound 21a, 2-allyl-4-((8-methyl-7-((1-methylpiperidin-4-yl)oxy)-2-oxo-2H-chromen-3-yl)carbamoyl)phenyl acetate] | 2260 ± 120 | 2000 ± 180 |  |  | decreased anti-proliferative activities |
| CC(=O)Oc1ccc(C(=O)Nc2cc3ccc(OC4CCN(C)CC4)c(C)c3oc2=O)cc1 [Compound 21b, 4-(8-methyl-7-(1-methylpiperidin-4-yloxy)-2-oxo-2H-chromen-3-ylcarbamoyl)phenyl acetate] | 1670 ± 200 | 1620 ± 40 |  |  | decreased anti-proliferative activities |
| CC(C)=CCc1cccc(C(=O)Nc2cc3ccc(OC4CCN(C)CC4)c(C)c3oc2=O)c1 [Compound 21c, N-(8-methyl-7-((1-methylpiperidin-4-yl)oxy)-2-oxo-2H-chromen-3-yl)-3-(3-methylbut-2-en-1-yl)benzamide] | 1680 ± 120 | 2100 ± 80 |  |  | two-fold lower activity |
| Cc1c(OC2CCN(C)CC2)ccc2cc(NC(=O)c3ccccc3)c(=O)oc12 [Compound 21d, N-(8-methyl-7-(1-methylpiperidin-4-yloxy)-2-oxo-2H-chromen-3-yl)benzamide] | 11500 ± 2000 | 11700 ± 1000 | 11500 | 11700 | significantly decreased activity |
| CC(=O)Oc1ccc(C(=O)Nc2cc3ccc(OC4CCN(C)CC4)c(C)c3oc2=O)cc1Cl [Compound 21e, 2-chloro-4-(8-methyl-7-(1-methylpiperidin-4-yloxy)-2-oxo-2H-chromen-3-ylcarbamoyl)phenyl acetate] | 3500 ± 10 | 1610 ± 160 |  |  | diminished activity |

Second part, led by results:

| IC50 [1, 4] [nM] | IC50 [2, 5] [nM] | IC50 ([1]; amide versus urea linkage, read-out: IC50 for SKBr3) [nM] | IC50 ([2]; amide versus urea linkage, read-out: IC50 for MCF-3) [nM] | SMILES | anti-proliferative activity (in words) [3] |
| --- | --- | --- | --- | --- | --- |
| 2430 ± 40 | 2170 ± 110 |  |  | C=CCc1cc(C(=O)Nc2cc3ccc(OC4CCN(C)CC4)c(C)c3oc2=O)ccc1O [Compound 22a, 3-allyl-4-hydroxy-N-(8-methyl-7-((1-methylpiperidin-4-yl)oxy)-2-oxo-2H-chromen-3-yl)benzamide] | decreased anti-proliferative activities |
| 840 ± 180 | 1430 ± 80 |  |  | Cc1c(OC2CCN(C)CC2)ccc2cc(NC(=O)c3ccc(O)cc3)c(=O)oc12 [Compound 22b, 4-hydroxy-N-(8-methyl-7-(1-methylpiperidin-4-yloxy)-2-oxo-2H-chromen-3-yl)benzamide] | decreased anti-proliferative activities |
| 2300 ± 570 | 1480 ± 140 |  |  | Cc1c(OC2CCN(C)CC2)ccc2cc(NC(=O)c3ccc(O)c(Cl)c3)c(=O)oc12 [Compound 22e, 3-chloro-4-hydroxy-N-(8-methyl-7-(1-methylpiperidin-4-yloxy)-2-oxo-2H-chromen-3-yl)benzamide] | diminished activity |
